Where two headings read alike, the source gives them in different places.
What was measured:
Sigma receptor = biological target: T1, Sigma receptor (Cavia porcellus, UniProt Q60492); experiment: Sigma Receptor Binding Assay; type: guinea pig (male Hartley), brain membranes
T1 construct: Brain membranes were prepared by the method of Tam; from tissue; host or cells: guinea pig whole brain membranes
Description: Male Hartley guinea pigs (250-300 g, Charles River) were sacrificed by decapitation. […] Whole brains were homogenized (20 sec.) in 10 vol (wt/vol) of ice-cold 0.34 M sucrose with a Brinkmann Polytron (setting 8). The homogenate was centrifuged at 920×g for 10 min. The supernatant was centrifuged at 47,000×g for 20 min. The resulting membrane pellet was resuspended in 10 vol (original wt/vol) of 50 mM Tris HCl (pH 7.4) and incubated at 37° C. for 45 min to degrade and dissociate bound endogenous ligands. The membranes were then centrifuged at 47,000×g for 20 min and resuspended in 50 mM Tris HCl (50 mL per brain).
After 45 rain of incubation at room temperature, samples were filtered rapidly through Whatman GF/C glass filters under negative pressure, and washed 3 times with ice-cold Tris buffer (5 mL).
IC50 s were calculated from log-logit plots. Apparent Ki s were calculated from the equation, Ki =IC50 /[1+(L/Kd)], where L is the concentration of radioligand and Kd is its dissociation constant.

Dopamine (D-2) receptor = biological target: T2, Dopamine (D-2) receptor (Cavia porcellus, UniProt H0VE83); experiment: Dopamine Receptor Binding; type: guinea pig, striatum membranes
T2 construct: Membranes were prepared from guinea pig striatum; from tissue; host or cells: guinea pig striatum membranes
T2 sequence (H0VE83 1-446): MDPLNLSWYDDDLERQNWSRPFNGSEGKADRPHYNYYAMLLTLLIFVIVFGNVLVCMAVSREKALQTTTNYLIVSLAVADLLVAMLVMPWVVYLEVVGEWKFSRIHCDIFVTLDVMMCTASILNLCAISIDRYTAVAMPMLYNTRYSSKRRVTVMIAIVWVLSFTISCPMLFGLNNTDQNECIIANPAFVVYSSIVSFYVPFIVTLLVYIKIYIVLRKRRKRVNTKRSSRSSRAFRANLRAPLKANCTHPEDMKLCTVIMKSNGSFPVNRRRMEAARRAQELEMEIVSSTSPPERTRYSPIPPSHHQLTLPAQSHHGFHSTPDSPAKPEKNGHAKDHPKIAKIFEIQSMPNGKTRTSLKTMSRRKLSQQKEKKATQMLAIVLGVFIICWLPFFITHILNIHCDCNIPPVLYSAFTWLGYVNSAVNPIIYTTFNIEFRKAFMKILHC
Description: Membranes were prepared from guinea pig striatum by the method described for sigma receptor binding. The membranes were then resuspended in 50 mM Tris HCl (9 mL per brain).
Nonspecific binding was measured in the presence of 100 nM (+)-butaclamol After 15 min of incubation at 37° C. samples were filtered rapidly through Whatman GF/C glass filters under negative pressure, and washed three times with ice-cold binding buffer (5 mL).

[1] = test system: isolation-induced aggression in mice; experiment: Isolation-Induced Aggression in Mice; type: in vivo, mouse (male Balb/c); details: for ED50: Mus musculus, po, 0.25 h, mice, p.o., 15 min after dosing, read-out: Inhibition of Isolation-induced Aggression (ED50 class); for inhibiting the isolation-induced aggressive behavior: statement on Table II
Description: Male Balb/c mice (Charles River) were used. […] Isolated mice failing to consistently attack an intruder were eliminated from the colony.
Drug testing was carried out by treating the isolated mice with test drugs or standards. Fifteen min after dosing with drugs by the oral route (p.o.), one isolated mouse was removed from its home cage and placed in the home cage of another isolate. Scoring was a yes or no response for each pair. A maximum of 3 min was allowed for an attack and the pair was separated immediately upon an attack. Selection of home cage and intruder mice was randomized for each test. Mice were treated and tested twice a week with at least a 2 day washout period between treatments.

[2] = test system: mescaline-induced scratching in mice; experiment: Mescaline-Induced Scratching in Mice; type: in vivo, mouse (male CF1); details: Mus musculus, 0.75 h, mescaline 25 mg/kg orally, 10 mg/kg po, read-out: Inhibition of Mescaline Scratch (ED50 class)
Description: This is a modification of the procedure of Fellows and Cook (in Psychotropic Drugs, ed. by S. Garrattini and V. Ghatti, pp. 397-404, Elsevier, Amsterdam, 1957) and Deegan and Cook (J. Pharmacol. Exp. Ther. 122: 17A, 1958). Male CF1 Mice (Charles River) were injected orally with test compound and placed singly into square (13 cm) Plexiglass observation chambers. Twenty minutes later mice were injected orally with mescaline (25 mg/kg). Beginning 25 minutes after treatment with mescaline (45 minutes after treatment with test compound), scratching episodes were counted during a 5 minute observation period. A scratching episode is defined as a brief (1-2 sec) burst of scratching either the head or the ear with the hind foot.

[3] = 1 nM (+)-[3H]SKF 10,047, guinea pig brain membranes, pH 7.4, 45 min room temperature, read-out: Receptor Binding Affinity Sigma (Ki class)
[4] = 0.15 nM [3H]spiperone, guinea pig striatum, pH 7.7, 15 min 37° C., read-out: Receptor Binding Affinity Dopamine (D-2) (Ki class)

T1 sequence (Q60492 whole entry): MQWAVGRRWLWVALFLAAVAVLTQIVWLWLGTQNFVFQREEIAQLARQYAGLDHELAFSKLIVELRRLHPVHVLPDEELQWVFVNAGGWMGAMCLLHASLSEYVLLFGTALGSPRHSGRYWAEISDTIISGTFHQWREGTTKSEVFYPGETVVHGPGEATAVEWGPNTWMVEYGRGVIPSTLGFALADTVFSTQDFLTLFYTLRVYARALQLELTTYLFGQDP

O=C1C2=C(CCCC2)CN1CC1CCN(CCc2ccccc2)CC1 [Example 6, 2,3,4,5,6,7-hexahydro-2-[[1-(2-phenylethyl)-4-piperidinyl]methyl]-1H-isoindol-1-one]
Ki (Sigma receptor; [3]): 31 to 100 nM | Ki (Dopamine (D-2) receptor; [4]): > 500 nM | ED50 [1]: 21 to 70 mg/kg | inhibiting the isolation-induced aggressive behavior [1]: potent activities

O=C1[C@H]2CCCC[C@H]2C(=O)N1CC1CCN(CC2CCCCC2)CC1 [Example 15]
Ki (Sigma receptor; [3]): 1 to 30 nM | Ki (Dopamine (D-2) receptor; [4]): > 500 nM | inhibiting the isolation-induced aggressive behavior [1]: potent activities

O=C1[C@H]2CCCC[C@H]2C(=O)N1CC1CCN(CCC2CCCCC2)CC1 [Example 17]
Ki (Sigma receptor; [3]): 1 to 30 nM | Ki (Dopamine (D-2) receptor; [4]): > 500 nM | inhibiting the isolation-induced aggressive behavior [1]: potent activities

CC1CC[C@@H]2C(=O)N(CC3CCN(CCc4ccccc4)CC3)C(=O)[C@@H]2C1 (stereo partly shown) [Example 23]
Ki (Sigma receptor; [3]): 1 to 30 nM | Ki (Dopamine (D-2) receptor; [4]): > 500 nM | ED50 [1]: 21 to 70 mg/kg

O=C1c2ccccc2C(=O)N1CC1CCN(Cc2ccccc2)CC1 [Example 34]
Ki (Sigma receptor; [3]): 1 to 30 nM | Ki (Dopamine (D-2) receptor; [4]): > 500 nM | ED50 [1]: 11 to 20 mg/kg

O=C1c2ccccc2C(=O)N1CCC1CCN(CCc2ccccc2)CC1 [Example 39]
Ki (Sigma receptor; [3]): 1 to 30 nM | Ki (Dopamine (D-2) receptor; [4]): > 500 nM | ED50 [1]: 21 to 70 mg/kg

O=C1C2C3C=CC(C4CC34)C2C(=O)N1CC1CCN(CCc2ccccc2)CC1 (stereo not shown) [Example 69]
Ki (Sigma receptor; [3]): 1 to 30 nM | Ki (Dopamine (D-2) receptor; [4]): > 500 nM

CC1C2=C(CCCC2)C(=O)N1CC1CCN(CCc2ccccc2)CC1 (stereo not shown) [Example 70, 2,3,4,5,6,7, -hexahydro-2-[[1-(2-phenylethyl)-4-piperidinyl]methyl]-3-methyl-1H-isoindol-1-one]
Ki (Sigma receptor; [3]): 101 to 500 nM | Ki (Dopamine (D-2) receptor; [4]): 101 to 500 nM

O=C1C2=C(CN1CC1CCN(CCc3ccccc3)CC1)C1CCCC2CC1 (stereo not shown) [Example 71]
Ki (Sigma receptor; [3]): 1 to 30 nM | Ki (Dopamine (D-2) receptor; [4]): > 500 nM

O=C1C2C3CCC(C4CCC43)C2C(=O)N1CC1CCN(CCc2ccccc2)CC1 (stereo not shown) [Example 72]
Ki (Sigma receptor; [3]): 1 to 30 nM | Ki (Dopamine (D-2) receptor; [4]): 101 to 500 nM

O=C1C2C3CCCC(CC3)C2C(O)N1CC1CCN(CCc2ccccc2)CC1 (stereo not shown) [Example 73]
Ki (Sigma receptor; [3]): 31 to 100 nM | Ki (Dopamine (D-2) receptor; [4]): > 500 nM

O=C1[C@H]2CCCC[C@H]2C(=O)N1CC1(O)CCN(CCc2ccccc2)CC1 [Example 74]
Ki (Sigma receptor; [3]): 101 to 500 nM | Ki (Dopamine (D-2) receptor; [4]): > 500 nM

O=C1C2C3C=CC(CCC3)C2C(=O)N1CC1(O)CCN(CCc2ccccc2)CC1 (stereo not shown) [Example 75]
Ki (Sigma receptor; [3]): 1 to 30 nM | Ki (Dopamine (D-2) receptor; [4]): > 500 nM

O=C1C2C3C=CC(C4C=CC43)C2C(=O)N1CC1(O)CCN(CCc2ccccc2)CC1 (stereo not shown) [Example 76]
Ki (Sigma receptor; [3]): 31 to 100 nM | Ki (Dopamine (D-2) receptor; [4]): > 500 nM

O=C1C2C3C=CC(C4CCC34)C2C(=O)N1CC1(O)CCN(CCc2ccccc2)CC1 (stereo not shown) [Example 77]
Ki (Sigma receptor; [3]): 31 to 100 nM | Ki (Dopamine (D-2) receptor; [4]): > 500 nM

CCCC1C2c3ccccc3C=CC2C(=O)N1CCC1CCN(CCc2ccccc2)CC1 (stereo not shown) [Example 86]
Ki (Sigma receptor; [3]): 101 to 500 nM | Ki (Dopamine (D-2) receptor; [4]): 101 to 500 nM

O=C1c2ccccc2C(=O)N1CCC1=CCN(CCc2ccccc2)CC1 [Example 115]
Ki (Sigma receptor; [3]): 1 to 30 nM | Ki (Dopamine (D-2) receptor; [4]): > 500 nM

O=C1c2ccccc2C(=O)N1CCCC1=CCN(CCc2ccccc2)CC1 [Example 116]
Ki (Sigma receptor; [3]): 31 to 100 nM | Ki (Dopamine (D-2) receptor; [4]): > 500 nM

O=C1[C@H]2CC=CC[C@H]2C(=O)N1CC1=CCN(CCc2ccccc2)CC1 [Example 117]
Ki (Sigma receptor; [3]): 1 to 30 nM | Ki (Dopamine (D-2) receptor; [4]): > 500 nM

O=C1[C@H]2CC=CC[C@H]2C(=O)N1CCCC1=CCN(CCc2ccccc2)CC1 [Example 118]
Ki (Sigma receptor; [3]): 1 to 30 nM | Ki (Dopamine (D-2) receptor; [4]): > 500 nM

O=C1[C@H]2CCCC[C@H]2C(=O)N1CC1=CCN(CCc2ccccc2)CC1 [Example 119]
Ki (Sigma receptor; [3]): 1 to 30 nM | Ki (Dopamine (D-2) receptor; [4]): > 500 nM

O=C1[C@H]2CCCC[C@H]2C(=O)N1CCC1=CCN(CCc2ccccc2)CC1 [Example 120]
Ki (Sigma receptor; [3]): 1 to 30 nM | Ki (Dopamine (D-2) receptor; [4]): > 500 nM

O=C1[C@H]2CCCC[C@H]2C(=O)N1CCCC1=CCN(CCc2ccccc2)CC1 [Example 121]
Ki (Sigma receptor; [3]): 1 to 30 nM | Ki (Dopamine (D-2) receptor; [4]): > 500 nM

O=C1[C@H]2CCCC[C@H]2C(=O)N1CC1(c2ccccc2)CCN(CCc2ccccc2)CC1 [Example 122, 2-[1-(2-Phenylethyl)-4-phenyl-4-piperidine-methyl]-cis-3a; 4,5,6,7,7a-hexalydro-1H-isoindole-1,3(2H)-dione]
Ki (Sigma receptor): 1 to 30 nM | Ki (Dopamine (D-2) receptor; [4]): > 500 nM

O=C1[C@H]2CCCC[C@H]2C(=O)N1CC1(c2cccc(Cl)c2)CCN(CCc2ccccc2)CC1 [Example 123]
Ki (Sigma receptor): 1 to 30 nM | Ki (Dopamine (D-2) receptor; [4]): > 500 nM

O=C1[C@H]2CCCC[C@H]2C(=O)N1CC1(c2ccc(Cl)cc2)CCN(CCc2ccccc2)CC1 [Example 124]
Ki (Sigma receptor): 1 to 30 nM | Ki (Dopamine (D-2) receptor; [4]): > 500 nM

COc1cccc(C2(CN3C(=O)C4CCCCC4C3=O)CCN(CCc3ccccc3)CC2)c1 (stereo not shown) [Example 125]
Ki (Sigma receptor): 31 to 100 nM | Ki (Dopamine (D-2) receptor): > 500 nM

O=C1C2CCCCC2C(=O)N1CC1(c2cccc(C(F)(F)F)c2)CCN(CCc2ccccc2)CC1 (stereo not shown) [Example 126]
Ki (Sigma receptor): 1 to 30 nM | Ki (Dopamine (D-2) receptor; [4]): > 500 nM

O=C1[C@H]2CCCC[C@H]2C(=O)N1CC1(c2cccc3ccccc23)CCN(CCc2ccccc2)CC1 [Example 127]
Ki (Sigma receptor): 31 to 100 nM | Ki (Dopamine (D-2) receptor; [4]): > 500 nM

O=C1[C@H]2CCCC[C@H]2C(=O)N1CC1(c2ccsc2)CCN(CCc2ccccc2)CC1 [Example 128]
Ki (Sigma receptor): 1 to 30 nM | Ki (Dopamine (D-2) receptor; [4]): > 500 nM

O=C1[C@H]2CCCC[C@H]2C(=O)N1CC1(c2csc3ccccc23)CCN(CCc2ccccc2)CC1 [Example 129]
Ki (Sigma receptor): 1 to 30 nM | Ki (Dopamine (D-2) receptor; [4]): 101 to 500 nM

O=C1c2ccccc2C(=O)N1CC1(c2cccc(Cl)c2)CCN(CCc2ccccc2)CC1 [Example 130]
Ki (Sigma receptor): 1 to 30 nM | Ki (Dopamine (D-2) receptor; [4]): > 500 nM

CC1(CN2C(=O)[C@H]3CCCC[C@H]3C2=O)CCN(CCc2ccccc2)CC1 [Example 132, 2-[1-(2-Phenylethyl)-4-(4-methyl)piperidinylmethyl]-cis-3a, 4,5,6,7,7a-hexahydro-1H-isoindole-1,3(2H)-dione]
Ki (Sigma receptor; [3]): 1 to 30 nM | Ki (Dopamine (D-2) receptor; [4]): > 500 nM

CC1(CN2C(=O)[C@H]3CCCC[C@H]3C2=O)CCN(CCC2CCCCC2)CC1 [Example 133]
Ki (Sigma receptor; [3]): 1 to 30 nM | Ki (Dopamine (D-2) receptor; [4]): > 500 nM

O=C1C2=C(CCCC2)C(c2ccccc2)N1CC1CCN(CCc2ccccc2)CC1 (stereo not shown) [Example 134]
Ki (Sigma receptor; [3]): 31 to 100 nM | ED50 [2]: < 11 mg/kg

CCCCC1C2=C(CCCC2)C(=O)N1CC1CCN(CCc2ccccc2)CC1 (stereo not shown) [Example 135]
ED50 [2]: < 11 mg/kg | ED50 [1]: < 11 mg/kg

O=C1C2=C(CCCC2)C(c2ccc(F)cc2)N1CC1CCN(CCc2ccccc2)CC1 (stereo not shown) [Example 136]
Ki (Sigma receptor; [3]): 31 to 100 nM | ED50 [2]: < 11 mg/kg | ED50 [1]: < 11 mg/kg

CC1C2=C(CCCC2)C(=O)N1CC1CCN(CCc2ccc(F)cc2)CC1 (stereo not shown) [Example 137]
ED50 [2]: < 11 mg/kg | ED50 [1]: < 11 mg/kg

CCCCCCC1C2=C(CCCC2)C(=O)N1CC1CCN(CCc2ccccc2)CC1 (stereo not shown) [Example 138]
Ki (Sigma receptor; [3]): 1 to 30 nM | ED50 [2]: < 11 mg/kg | ED50 [1]: < 11 mg/kg

CC(C)CC1C2=C(CCCC2)C(=O)N1CC1CCN(CCc2ccccc2)CC1 (stereo not shown) [Example 139]
Ki (Sigma receptor; [3]): 1 to 30 nM | ED50 [2]: < 11 mg/kg | ED50 [1]: < 11 mg/kg

CCC(C)C1C2=C(CCCC2)C(=O)N1CC1CCN(CCc2ccccc2)CC1 (stereo not shown) [Example 140]
Ki (Sigma receptor; [3]): 31 to 100 nM | ED50 [2]: < 11 mg/kg

O=C1C2=C(CCCC2)C(c2ccco2)N1CC1CCN(CCc2ccccc2)CC1 (stereo not shown) [Example 141]
Ki (Sigma receptor; [3]): 1 to 30 nM | ED50 [2]: < 11 mg/kg

O=C1C2=C(CCCC2)C(c2cccs2)N1CC1CCN(CCc2ccccc2)CC1 (stereo not shown) [Example 142]
Ki (Sigma receptor; [3]): 1 to 30 nM | ED50 [2]: < 11 mg/kg

Cc1ccc(C2C3=C(CCCC3)C(=O)N2CC2CCN(CCc3ccccc3)CC2)cc1 (stereo not shown) [Example 143]
ED50 [2]: < 11 mg/kg | ED50 [1]: < 11 mg/kg

CCCC1C2=C(CCCC2)C(=O)N1CC1CCN(CCc2ccccc2)CC1 (stereo not shown) [Example 144]
ED50 [2]: < 11 mg/kg | ED50 [1]: < 11 mg/kg

Reference: US5480892A, “(N-phthalimidoalkyl)piperidines” (The Du Pont Merck Pharmaceutical Company, priority 1994, dated 1996)
